Experimental data: patent publication US20240252488A1 (KOREA RESEARCH INSTITUTE OF CHEMICAL TECHNOLOGY, priority 2020, published 2024)
Structures can show the parent of a compound that is named as a salt.

How the values were obtained:
MLKL = biological target: T1, MLKL (Homo sapiens, UniProt Q8NB16); test: Measurement of binding affinity with MLKL receptor (competitive binding assay, Kd); set-up: made in house; host or cells: HEK 293 cell line (T7 phage in E. coli BL21-derived host is also described)
T1 sequence (Q8NB16 1-471): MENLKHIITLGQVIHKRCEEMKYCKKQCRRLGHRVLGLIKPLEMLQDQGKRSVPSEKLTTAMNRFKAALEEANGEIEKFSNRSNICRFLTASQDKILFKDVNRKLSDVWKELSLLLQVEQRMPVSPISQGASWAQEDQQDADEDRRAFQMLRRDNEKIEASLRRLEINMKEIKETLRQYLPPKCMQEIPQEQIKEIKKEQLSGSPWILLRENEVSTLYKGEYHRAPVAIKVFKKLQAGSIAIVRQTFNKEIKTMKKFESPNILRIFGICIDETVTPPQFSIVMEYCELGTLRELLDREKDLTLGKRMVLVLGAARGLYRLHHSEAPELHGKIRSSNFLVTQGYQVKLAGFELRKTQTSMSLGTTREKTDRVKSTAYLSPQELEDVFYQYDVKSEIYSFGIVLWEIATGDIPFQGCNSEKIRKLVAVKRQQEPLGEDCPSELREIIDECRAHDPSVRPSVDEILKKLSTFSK
Description: Measurement of Binding Affinity with MLKL Receptor (Competitive Binding Assay)
The binding affinity was evaluated by measuring the Kd value in the following method.
To prepare kinase-tagged T7 phage strains in an E. coli host derived from the BL21 strain, E. coli were grown to log-phase and infected with T7 phage and incubated with shaking at 32° C. until lysis. The lysates were centrifuged and filtered to remove cell debris. For kinase production, it was expressed in human embryonic kidney cell line (HEK 293 cell line), and subsequently tagged with DNA for qPCR detection.
The liganded beads were blocked with excess biotin and washed with blocking buffer (SeaBlock (Pierce), 1% BSA, 0.05% Tween 20, 1 mM DTT) to remove unbound ligand and to reduce non-specific binding. […] Test compounds were prepared as 111× stocks in 100% DMSO.
The compounds were then diluted directly into the assays such that the final concentration of DMSO was 0.9%. All reactions performed in polypropylene 384-well plate. Each was a final volume of 0.02 ml. […] The kinase concentration in the eluates was measured by qPCR.

FADD−/− Jurkat cells = test: Necroptosis inhibition assay, TNF-α-induced necroptosis (CellTiter-Glo 2.0); assay type: cell-based, human; settings: TNF-α 15 ng/mL; for Necroptosis inhibition assay (Rescue %) 1 μM: compound 1 μM; for Necroptosis inhibition assay (Rescue %) 10 μM: compound 10 μM
Description: Necroptosis Inhibition Assay
Necroptosis inhibition was evaluated by the following method.
80 μL of FADD gene-defective human T lymphocyte cells (FADD−/− Jurkat cells) were equally distributed into each well at 5.0×10^5 cells/mL in a white 96-well plate with a transparent bottom. 20 μL of the medium containing test compound was treated in each well so that the final concentration of the compound was 0.1, 1, and 10 μM, and reacted at room temperature for 30 minutes. After the 30-minute reaction was over, TNF (tumor necrosis factor)-α was treated in the corresponding well so that the final concentration of TNF-α was 15 ng/mL in order to induce necroptosis. It was cultured in a 5% CO2, 37° C. incubator for 20 to 24 hours.
After incubation, the 96-well plate was left at room temperature for 30 minutes. After 30 minutes, Promega's CellTiter-Glo 2.0 reagent was diluted 1:3 with PBS and 100 μL of the diluted solution was added to each well to confirm cell viability by measuring the amount of ATP. After the treatment, the plate was shielded from light and incubated at room temperature for 2 minutes with orbital shaking, and then left at room temperature for 10 minutes without shaking. After measuring the luminescence at 0.5 seconds per well using a plate scanner, the cytotoxicity and necroptosis inhibition rate for the compound were calculated using the measured values.

Row | Compound | Kd (MLKL) [nM] | Necroptosis inhibition assay (Rescue %) 1 μM (FADD−/− Jurkat cells) [%] | Necroptosis inhibition assay (Rescue %) 10 μM (FADD−/− Jurkat cells) [%]
1 | Nc1nccnc1C(=O)O[C@H](C(=O)Nc1ccc(F)cc1)c1ccccc1 [TDH-002, (S)-2-((4-fluorophenyl)amino)-2-oxo-1-phenylethyl 3-aminopyrazine-2-carboxylate] | > 10000 | 6.35 | 
2 | Nc1ncc(C2=CCN(CCOCCOCCNC(=O)CNc3ccc4c(c3)C(=O)N(C3CCC(=O)NC3=O)C4=O)CC2)nc1C(=O)O[C@@H](C(=O)Nc1ccc(F)cc1)c1ccccc1 (stereo partly drawn) [TDH-107, (R)-2-((4-fluorophenyl)amino)-2-oxo-1-phenylethyl 3-amino-6-(1-(2-(2-(2-(2-((2-(2,6-dioxopiperidin-3-yl)-1,3-dioxoisoindolin-5-yl)amino)acetamido)ethoxy)ethoxy)ethyl)-1,2,3,6-tetrahydropyridin-4-yl)pyrazine-2-carboxylate] | 560 | 24.34 | 50.16
3 | Nc1ncc(-c2cnn(C3CCN(CCCCCCCCCCNC(=O)COc4cccc5c4C(=O)N(C4CCC(=O)NC4=O)C5=O)CC3)c2)nc1C(=O)O[C@@H](C(=O)Nc1ccc(F)cc1)c1ccccc1 (stereo partly drawn) [TDH-163, (R)-2-((4-fluorophenyl)amino)-2-oxo-1-phenylethyl 3-amino-6-(1-(1-(10-(2-((2-(2,6-dioxopiperidin-3-yl)-1,3-dioxoisoindolin-4-yl)oxy)acetamido)decyl)piperidin-4-yl)-1H-pyrazol-4-yl)pyrazine-2-carboxylate] | 45 | 30.03 | 28.56
4 | Nc1ncc(-c2cnn(C3CCN(CCCCCCNc4ccc5c(c4)C(=O)N(C4CCC(=O)NC4=O)C5=O)CC3)c2)nc1C(=O)O[C@@H](C(=O)Nc1ccc(F)cc1)c1ccccc1 (stereo partly drawn) [TDH-120, (R)-2-((4-fluorophenyl)amino)-2-oxo-1-phenylethyl 3-amino-6-(1-(1-(6-((2-(2,6-dioxopiperidin-3-yl)-1,3-dioxoisoindolin-5-yl)amino)hexyl)piperidin-4-yl)-1H-pyrazol-4-yl)pyrazine-2-carboxylate] | 1.7 | 10.65 | 
5 | Nc1ncc(C2=CCN(C(=O)COCCOCCNc3ccc4c(c3)C(=O)N(C3CCC(=O)NC3=O)C4=O)CC2)cc1C(=O)O[C@@H](C(=O)Nc1ccc(F)cc1)c1ccccc1 (stereo partly drawn) [TDH-083, (R)-2-((4-fluorophenyl)amino)-2-oxo-1-phenylethyl 6-amino-1′-(2-(2-(2-((2-(2,6-dioxopiperidin-3-yl)-1,3-dioxoisoindolin-5-yl)amino)ethoxy)ethoxy)acetyl)-1′,2′,3′,6′-tetrahydro-[3,4′-bipyridine]-5-carboxylate] | 84 |  | 
6 | Nc1ncc(-c2cnn(C3CCN(CCCCCCNc4cccc5c4C(=O)N(C4CCC(=O)NC4=O)C5=O)CC3)c2)nc1C(=O)O[C@@H](C(=O)Nc1ccc(F)cc1)c1ccccc1 (stereo partly drawn) [TDH-119, (R)-2-((4-fluorophenyl)amino)-2-oxo-1-phenylethyl 3-amino-6-(1-(1-(6-((2-(2,6-dioxopiperidin-3-yl)-1,3-dioxoisoindolin-4-yl)amino)hexyl)piperidin-4-yl)-1H-pyrazol-4-yl)pyrazine-2-carboxylate] | 7.9 |  | 
7 | CC(=O)N1CC[C@H](n2cc(-c3cnc(N)c(C(=O)OC(C(=O)Nc4ccc(F)cc4)c4ccccc4)n3)cn2)C1 (stereo partly drawn) [TDH-228, 2-((4-fluorophenyl)amino)-2-oxo-1-phenylethyl 6-(1-((S)-1-acetylpyrrolidin-3-yl)-1H-pyrazol-4-yl)-3-aminopyrazine-2-carboxylate] | 1.2 |  | 
8 | CCN1CCN(c2ccc(-c3cnc(N)c(C(=O)O[C@@H](C(=O)Nc4ccc(F)cc4)c4ccccc4)n3)cn2)CC1 [TDH-183, (R)-2-((4-fluorophenyl)amino)-2-oxo-1-phenylethyl 3-amino-6-(6-(4-ethylpiperazin-1-yl)pyridin-3-yl)pyrazine-2-carboxylate] | 2 |  | 
9 | Nc1ncc(Br)nc1C(=O)N[C@H](C(=O)Nc1ccc(F)cc1)c1ccccc1 [TDH-067, (S)-3-amino-6-bromo-N-(2-((4-fluorophenyl)amino)-2-oxo-1-phenylethyl)pyrazine-2-carboxamide] | > 10000 |  | 
10 | CC(C)(C)OC(=O)N1CC=C(c2cnc(N)c(C(=O)O[C@@H](C(=O)Nc3ccc(F)cc3)c3ccccc3)c2)CC1 [TDH-066, (R)-1′-(tert-butyl) 5-(2-((4-fluorophenyl)amino)-2-oxo-1-phenylethyl) 6-amino-3′,6′-dihydro-[3,4′-bipyridine]-1′,5(2′H)-dicarboxylate] | 650 |  | 
11 | Nc1ncc(C2=CCNCC2)cc1C(=O)O[C@@H](C(=O)Nc1ccc(F)cc1)c1ccccc1 [TDH-070, (R)-2-((4-fluorophenyl)amino)-2-oxo-1-phenylethyl 6-amino-1′,2′,3′,6′-tetrahydro-[3,4′-bipyridine]-5-carboxylate hydrochloride] | 110 |  | 
12 | CC(C)(C)OC(=O)N1CC[C@H](n2cc(-c3cnc(N)c(C(=O)OC(C(=O)Nc4ccc(F)cc4)c4ccccc4)n3)cn2)C1 (stereo partly drawn) [TDH-227, 2-((4-fluorophenyl)amino)-2-oxo-1-phenylethyl 3-amino-6-(1-((S)-1-(tert-butoxycarbonyl)pyrrolidin-3-yl)-1H-pyrazol-4-yl)pyrazine-2-carboxylate] | 12 |  | 
13 | Nc1ncc(C2=CCN(C(=O)COCCOCCNC(=O)C3CCN(c4ccc5c(c4)C(=O)N(C4CCC(=O)NC4=O)C5=O)CC3)CC2)cc1C(=O)O[C@@H](C(=O)Nc1ccc(F)cc1)c1ccccc1 (stereo partly drawn) [TDH-089, (R)-2-((4-fluorophenyl)amino)-2-oxo-1-phenylethyl 6-amino-1′-(2-(2-(2-(1-(2-(2,6-dioxopiperidin-3-yl)-1,3-dioxoisoindolin-5-yl)piperidine-4-carboxamido)ethoxy)ethoxy)acetyl)-1′,2′,3′,6′-tetrahydro-[3,4′-bipyridine]-5-carboxylate] | 56 |  | 
14 | Nc1ncc(-c2cnn(C3CCNCC3)c2)nc1C(=O)O[C@@H](C(=O)Nc1ccc(F)cc1)c1cccc(Cl)c1 [hydrochloride] | 2 |  | 
15 | Nc1ncc(-c2cnn(C3CCNCC3)c2)nc1C(=O)O[C@@H](C(=O)Nc1cccnc1)c1ccccc1 [TDH-468, (R)-2-oxo-1-phenyl-2-(pyridin-3-ylamino)ethyl 3-amino-6-(1-(piperidin-4-yl)-1H-pyrazol-4-yl)pyrazine-2-carboxylate hydrochloride] | 1.7 |  | 
16 | Nc1ncc(C2=CCNCC2)nc1C(=O)O[C@@H](C(=O)Nc1ccc(F)cc1)c1ccccc1 [TDH-068, (R)-2-((4-fluorophenyl)amino)-2-oxo-1-phenylethyl 3-amino-6-(1,2,3,6-tetrahydropyridin-4-yl)pyrazine-2-carboxylate hydrochloride] | 380 |  | 
17 | Nc1ncc(C2=CCN(C(=O)CCCCCNC(=O)C3CCN(c4cccc5c4C(=O)N(C4CCC(=O)NC4=O)C5=O)CC3)CC2)cc1C(=O)O[C@@H](C(=O)Nc1ccc(F)cc1)c1ccccc1 (stereo partly drawn) [TDH-080, (R)-2-((4-fluorophenyl)amino)-2-oxo-1-phenylethyl 6-amino-1′-(6-(1-(2-(2,6-dioxopiperidin-3-yl)-1,3-dioxoisoindolin-4-yl)piperidine-4-carboxamido)hexanoyl)-1′,2′,3′,6′-tetrahydro-[3,4′-bipyridine]-5-carboxylate] | 120 |  | 
